Results as given in patent US5726012A, “Rapid, high capacity nucleic acid based assay” (E. I. du Pont de Nemours and Company, priority 1994, dated 1998).
In brackets after ≈: the same amount, converted by molar mass. Where two headings read alike, the source gives them in different places.

Experiments:
[1] = system: HIV RF (infectious virus) in MT-2 cells; assay: Yield of infectious virus by plaque assay (yield reduction assay) in MT-2 cells; format: cell-based, HIV-1 (strain RF); conditions: for yield of infectious virus: 72 hours, MT-2 cells, HIV RF; for IC90: Human immunodeficiency virus 1, MT2, 72 h
Method: Test compounds were dissolved in dimethylsulfoxide to 5 mg/ml and serially diluted into RPMI 1640 medium to 10 times the desired final concentration. MT-2 cells (5×10^5 /ml) in 2.3 ml were mixed with 0.3 ml of the appropriate test compound solution and allowed to sit for 30 minutes at room temperature. HIV-1 IIIB or HIV-1 RF virus (~5×10^5 plaque forming units/ml) in 0.375 ml was added to the cell and compound mixtures and incubated for one hour at 36° C. The mixtures were centrifuged at 1000 rpm for 10 minutes and the supernatants containing unattached virus were discarded. The cell pellets were suspended in fresh RPMI 1640 containing the appropriate concentrations of test compound and placed in a 36° C., 4% CO2 incubator. Virus was allowed to replicate for three days. Cultures were centrifuged for 10 minutes at 1000 rpm and the supernatants containing cell free progeny virus removed for plaque assay. Virus suspensions were serially diluted in RPMI 1640 and 1.0 ml of each dilution added to 9 ml of MT-2 cells in RPMI 1640. Cells and virus were incubated for three hours at 36° C. to allow for efficient attachment of the virus to cells. Each virus and cell mixture was aliquoted equally to two wells of a six well poly-L-lysine coated culture plate and incubated overnight at 36° C., 4% CO2. Liquid and unattached cells were removed prior to the addition of 1.5 ml of RPMI 1640 with 0.75% (w/v) Seaplaque agarose (FMC Corp) and 5% FCS. Plates were incubated for three days and a second RPMI 1640/agarose overlay added. After an additional three days at 36° C., 4% CO2, a final overlay of PBS with 0.75% Seaplaque agarose and 1 mg/ml MTT was added. The plates were incubated overnight at 36° C. Clear plaques on a purple background were counted and the number of plaque forming units of virus calculated for each sample. The virus titers of the progeny virus produced in the presence or absence of test compounds was determined by plaque assay as described above. The antiviral activity of test compounds was determined by the percent reduction in the virus titer with respect to virus grown in the absence of any inhibitors.
(§1) MT-2 cells were infected by resuspension in medium (Dulbecco's Modified Eagles, 5% Fetal calf serum, 50 ug/ml glutamine, 50 ug/ml gentamycin) containing either 1 ×10^6 TCID 50/ ml (FIGS. 7 and 9) or 2.5×10^5 TCID 50/ml of HIV RF virus (FIGS. 8 and 9) to a final concentration of 5×10^5 cells/ml, with or without various concentrations of AZT or P9941 which is (2S,3R,4R, 5S)-N,N'-[(2-pyridylacetyl)-L-isoleucyl]-2,5-diamino-1,6-diphenyl-hexane-3,4-diol as described in WO91/18866, the disclosure of which is incorporated by reference. After incubation for four hours at 37° C., the cells were pelleted, the supernatant medium removed, and cells resuspended in an equal volume of medium ± compound without added virus. Culture was continued for a total of 72 hours at 37° C. after which time cells were pelleted, lysed by addition of 5M GED, and stored frozen at -70° C. until quantitation of HIV-1 RNA by the method described in Example 8 except that the `gag` capture/reporter probe set as described in Example 2 was employed. Supernatant medium from each sample was frozen at -120° C. until determination of yield of infectious virus by plaque assay as described in Example 11. […] Both cell associated RNA and yield of infectious virus were reduced by treatment with either AZT, a reverse transcriptase inhibitor, or P9941, an inhibitor of the HIV encoded protease. The concentration of AZT or P9941 required to inhibit HIV-1 RNA by 90% (IC90) was equivalent to the concentration of AZT or P9941 required to inhibit the yield of infectious virus by 90% (IC90). The concentrations of antiviral compound required to inhibit either HIV-1 RNA or yield of infectious virus by 90% (IC90) were very similar. For both HIV RNA and yield of infectious virus, this IC90 value was affected by the initial MOI (Table 1).

[2] = system: HIV RF (HIV-1 RNA) in MT-2 cells; assay: Quantitation of cell associated HIV-1 RNA in infected MT-2 cells (correlation study); format: cell-based, HIV-1 (strain RF); conditions: for IC90 for HIV-1 RNA compared with IC90 for yield of infectious virus / cell associated RNA: 72 hours, MT-2 cells, HIV RF; for IC90: Human immunodeficiency virus 1, MT2, 72 h, 72 hrs after infection
Method: HIV-1 infected cell lysates from MT-2 cells grown for 24, 48 and 72 hours after infection with different initial multiplicities of infection (MOI, e.g., TCID 50 per cell) of HIV-1RF were prepared by the cell pelleting method as described in Example 5. The tissue culture infectious dose (TCID 50) for HIV-1 RF stocks were determined in MT-2 cells by a modification of the method of Johnson et al., "Infectivity Assay", Techniques in HIV Research, Aldovina et al. (1990) wherein the tissue culture medium was not changed after four days. 40 μl of the lysate and 5 μl of 1 μM biotinylated `pol` oligo were combined with GED to a final volume of 100 μl and a GED concentration of 3M and a final biotinylated `pol` oligo concentration of 50 nM. Hybridization was carried out overnight at 37° C. in sealed polypropylene tubes. Each sample was diluted three-fold with deionized water to a final GED concentration of 1M and aliquots (120 μl) transferred to streptavidin coated microtiter plate wells. The biotin oligo-RNA complex solution was incubated with the immobilized streptavidin for two hours at room temperature, after which the plates were washed six times with DuPont ELISA plate wash buffer (phosphate buffered saline (PBS)/0.05% Tween 20) with a Denley plate washer. A second hybridization was carried out by adding 120 μl of hybridization cocktail containing 4× standard saline citrate (0.15M NaCl, 0.015 sodium citrate) (SSC), 0.66% Triton X-100 and 6.66% deionized formamide, 1 mg/ml bovine serum albumin (BSA) and 5 nM `pol` AP reporter oligo to each well. After hybridization for one hour at 37° C., the plate was again washed six times in PBS/0.05% Tween 20. Alkaline phosphatase activity was detected by addition of 100 μl of substrate detection buffer, consisting of: 0.2 mM 4-methylumbelliferyl phosphate (MUBP, JBL Scientific) in 2.5M diethanolamine pH 8.9 (JBL), 10 mM MgCl2, 5 mM Zinc acetate dihydrate, and 5 mM n-hydroxyethyl-ethylene-diamine-triacetic acid. The plates were incubated at 37° C. Fluorescence was measured using a microplate fluorometer (Dynateck) exciting at 365 nm and emitting at 450 nm. […] At MOI's greater than 1 for cells cultured 72 hours after infection the level of HIV-1RNA was diminished by cell death that occurs as a result of extensive virus replication.
as §1, with “For both HIV RNA and yield of infectious virus, this IC90 value was affected by the initial MOI (Table 1).” left out

SMILES | yield of infectious virus [1] | IC90 ([1]; read-out: IC90, PFU, 72 hrs after infection, MOI = 0.5) [µg/mL] | IC90 ([1]; read-out: IC90, PFU, 72 hrs after infection, MOI = 2.0) [µg/mL] | IC90 for HIV-1 RNA compared with IC90 for yield of infectious virus [2] | cell associated RNA [2] | IC90 ([2]; MOI = 0.5) [µg/mL] | IC90 ([2]; MOI = 2.0) [µg/mL] | IC90 ([1]; 72 hrs after infection, MOI = 0.5, read-out: IC90, PFU) [µg/mL] | IC90 ([1]; 72 hrs after infection, MOI = 2.0, read-out: IC90, PFU) [µg/mL]
Cc1cn([C@H]2C[C@H](N=[N+]=[N-])[C@@H](CO)O2)c(=O)[nH]c1=O [AZT] | reduced | 0.09 (≈ 0.337 µM) | 0.28 (≈ 1.05 µM) | equivalent | reduced | 0.12 (≈ 0.449 µM) | 0.2 (≈ 0.748 µM) | – | –
CC[C@H](C)[C@H](NC(=O)Cc1ccccn1)C(=O)N[C@@H](Cc1ccccc1)[C@@H](O)[C@H](O)[C@H](Cc1ccccc1)NC(=O)[C@@H](NC(=O)Cc1ccccn1)[C@@H](C)CC [P9941, (2S,3R,4R, 5S)-N,N'-[(2-pyridylacetyl)-L-isoleucyl]-2,5-diamino-1,6-diphenyl-hexane-3,4-diol] | reduced | – | – | equivalent | reduced | 0.55 (≈ 0.719 µM) | 1.5 (≈ 1.96 µM) | 0.38 (≈ 0.497 µM) | 1 (≈ 1.31 µM)
